Test results from patent US12365696B2, “Small-molecule focal adhesion kinase (FAK) inhibitors” (DANA-FARBER CANCER INSTITUTE, INC., priority 2019, dated 2025).
Values joined by “and” are separate entries in the source; they are usually repeats but may differ in a detail not shown here. Identical values can stand only once. Like-named read-outs stand apart in the source and are kept apart here.

What was measured:
PDPK1 = PDPK1 (Homo sapiens (Human), UniProt O15530); test: KINOMEscan; assay type: binding; details: PDPK1, 10000 nM; read-out: Percent Control
Chain of PDPK1 (O15530 whole entry): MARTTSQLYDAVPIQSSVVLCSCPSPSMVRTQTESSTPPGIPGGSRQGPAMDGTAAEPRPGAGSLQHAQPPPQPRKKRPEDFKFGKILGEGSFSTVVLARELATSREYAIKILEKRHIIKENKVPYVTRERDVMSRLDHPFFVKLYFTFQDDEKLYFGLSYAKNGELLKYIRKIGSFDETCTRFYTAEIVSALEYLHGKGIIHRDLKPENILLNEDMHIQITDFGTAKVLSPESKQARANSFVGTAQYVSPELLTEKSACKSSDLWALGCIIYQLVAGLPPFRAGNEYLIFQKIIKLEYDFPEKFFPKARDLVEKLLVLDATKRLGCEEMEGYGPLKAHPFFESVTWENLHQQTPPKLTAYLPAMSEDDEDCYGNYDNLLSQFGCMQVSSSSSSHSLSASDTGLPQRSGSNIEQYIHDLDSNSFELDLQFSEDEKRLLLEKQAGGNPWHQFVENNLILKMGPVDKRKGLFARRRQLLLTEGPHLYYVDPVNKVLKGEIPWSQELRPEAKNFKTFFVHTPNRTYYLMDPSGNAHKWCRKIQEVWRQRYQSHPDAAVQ

EPHA3 = EPHA3 (Homo sapiens (Human), UniProt P29320); test: KINOMEscan; assay type: binding; details: EPHA3, 10000 nM; read-out: Percent Control
[1] = target: RSK3(Kin.Dom.2-C-terminal) (Homo sapiens (Human), UniProt Q15349); test: KINOMEscan; assay type: binding; details: 10000 nM, read-out: Percent Control
Chain of RSK3(Kin.Dom.2-C-terminal) (Q15349 415-672): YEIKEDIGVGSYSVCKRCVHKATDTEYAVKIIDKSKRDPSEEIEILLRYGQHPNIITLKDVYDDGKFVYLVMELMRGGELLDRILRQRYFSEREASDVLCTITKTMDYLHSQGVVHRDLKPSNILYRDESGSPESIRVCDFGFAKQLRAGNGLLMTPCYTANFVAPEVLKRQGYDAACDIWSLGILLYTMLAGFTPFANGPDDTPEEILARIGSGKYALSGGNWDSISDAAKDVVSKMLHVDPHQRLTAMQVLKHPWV

IKK-beta = IKK-beta (Homo sapiens (Human), UniProt O14920); test: KINOMEscan; assay type: binding; details: 10000 nM, read-out: Percent Control
ERK2 = ERK2 (Homo sapiens (Human), UniProt P28482); test: KINOMEscan; assay type: binding; details: ERK2, 10000 nM; read-out: Percent Control
Chain of ERK2 (P28482 whole entry): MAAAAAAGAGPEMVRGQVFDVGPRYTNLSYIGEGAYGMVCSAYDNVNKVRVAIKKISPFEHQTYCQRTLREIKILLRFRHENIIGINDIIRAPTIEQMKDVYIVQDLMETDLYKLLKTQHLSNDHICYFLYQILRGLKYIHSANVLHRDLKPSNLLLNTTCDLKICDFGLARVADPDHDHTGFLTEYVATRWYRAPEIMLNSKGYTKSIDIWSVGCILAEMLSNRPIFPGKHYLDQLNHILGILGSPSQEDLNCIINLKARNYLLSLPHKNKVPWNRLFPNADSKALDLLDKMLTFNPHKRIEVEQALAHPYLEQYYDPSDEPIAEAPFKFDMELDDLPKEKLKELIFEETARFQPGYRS

ERK3 = ERK3 (Homo sapiens (Human), UniProt Q16659); test: KINOMEscan; assay type: binding; details: ERK3, 10000 nM; read-out: Percent Control
Chain of ERK3 (Q16659 whole entry): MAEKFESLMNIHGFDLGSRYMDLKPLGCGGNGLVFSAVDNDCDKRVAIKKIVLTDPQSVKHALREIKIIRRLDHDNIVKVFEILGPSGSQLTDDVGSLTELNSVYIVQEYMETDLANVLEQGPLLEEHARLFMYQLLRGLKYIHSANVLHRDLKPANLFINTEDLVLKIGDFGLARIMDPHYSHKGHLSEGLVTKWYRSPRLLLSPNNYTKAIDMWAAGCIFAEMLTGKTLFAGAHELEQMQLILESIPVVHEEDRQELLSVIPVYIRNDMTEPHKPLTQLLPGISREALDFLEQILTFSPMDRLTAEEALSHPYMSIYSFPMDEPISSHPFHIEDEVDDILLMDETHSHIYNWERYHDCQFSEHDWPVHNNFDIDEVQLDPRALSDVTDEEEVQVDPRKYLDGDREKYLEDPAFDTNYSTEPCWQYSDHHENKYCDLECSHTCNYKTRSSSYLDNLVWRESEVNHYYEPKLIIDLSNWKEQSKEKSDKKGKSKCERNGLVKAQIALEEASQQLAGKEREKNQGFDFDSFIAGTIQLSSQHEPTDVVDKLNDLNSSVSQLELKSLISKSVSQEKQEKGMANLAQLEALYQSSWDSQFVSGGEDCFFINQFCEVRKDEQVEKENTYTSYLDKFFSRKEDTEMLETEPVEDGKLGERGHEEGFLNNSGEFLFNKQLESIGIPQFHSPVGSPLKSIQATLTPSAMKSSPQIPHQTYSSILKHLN

PLK1 = PLK1 (Homo sapiens (Human), UniProt P53350); test: KINOMEscan; assay type: binding; details: PLK1, 10000 nM; read-out: Percent Control
Chain of PLK1 (P53350 whole entry): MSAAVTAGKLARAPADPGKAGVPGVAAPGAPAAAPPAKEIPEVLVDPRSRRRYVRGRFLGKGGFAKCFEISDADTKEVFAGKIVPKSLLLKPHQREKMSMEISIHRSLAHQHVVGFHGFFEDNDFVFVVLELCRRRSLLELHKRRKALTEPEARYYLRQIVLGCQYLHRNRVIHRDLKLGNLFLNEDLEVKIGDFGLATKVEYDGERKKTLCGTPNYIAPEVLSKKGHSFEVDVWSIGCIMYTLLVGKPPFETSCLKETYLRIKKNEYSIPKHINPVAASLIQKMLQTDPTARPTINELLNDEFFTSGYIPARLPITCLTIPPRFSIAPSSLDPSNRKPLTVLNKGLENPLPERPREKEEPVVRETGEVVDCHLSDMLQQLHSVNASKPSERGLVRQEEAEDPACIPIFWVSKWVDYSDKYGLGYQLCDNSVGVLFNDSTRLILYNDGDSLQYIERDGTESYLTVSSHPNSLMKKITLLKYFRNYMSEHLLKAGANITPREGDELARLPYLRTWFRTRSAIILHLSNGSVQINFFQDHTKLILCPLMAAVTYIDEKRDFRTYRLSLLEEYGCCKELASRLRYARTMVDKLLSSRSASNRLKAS

SGK3 = SGK3 (Homo sapiens (Human), UniProt Q96BR1); test: KINOMEscan; assay type: binding; details: SGK3, 10000 nM; read-out: Percent Control
BRK = BRK (Homo sapiens (Human), UniProt Q13882); test: KINOMEscan; assay type: binding; details: 10000 nM, read-out: Percent Control
STK16 = STK16 (Homo sapiens (Human), UniProt O75716); test: KINOMEscan; assay type: binding; details: STK16, 10000 nM; read-out: Percent Control
Chain of STK16 (O75716 whole entry): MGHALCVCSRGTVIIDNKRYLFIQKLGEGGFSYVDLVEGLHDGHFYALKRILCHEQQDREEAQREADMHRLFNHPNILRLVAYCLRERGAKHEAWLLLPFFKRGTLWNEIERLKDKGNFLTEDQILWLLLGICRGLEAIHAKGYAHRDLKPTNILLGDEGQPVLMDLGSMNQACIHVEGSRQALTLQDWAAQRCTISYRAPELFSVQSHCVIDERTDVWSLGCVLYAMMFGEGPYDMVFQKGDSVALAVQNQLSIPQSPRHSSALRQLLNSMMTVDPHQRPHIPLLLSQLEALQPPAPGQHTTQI

ABL1-phosphorylated = ABL1-phosphorylated (Homo sapiens (Human), UniProt P00519); test: KINOMEscan; assay type: binding; details: 10000 nM, read-out: Percent Control
p38-beta = p38-beta (Homo sapiens (Human), UniProt Q15759); test: KINOMEscan; assay type: binding; details: 10000 nM, read-out: Percent Control
BRSK2 = BRSK2 (Homo sapiens (Human), UniProt Q8IWQ3); test: KINOMEscan; assay type: binding; details: BRSK2, 10000 nM; read-out: Percent Control
DRAK1 = DRAK1 (Homo sapiens (Human), UniProt Q9UEE5); test: KINOMEscan; assay type: binding; details: DRAK1, 10000 nM; read-out: Percent Control
Chain of DRAK1 (Q9UEE5 whole entry): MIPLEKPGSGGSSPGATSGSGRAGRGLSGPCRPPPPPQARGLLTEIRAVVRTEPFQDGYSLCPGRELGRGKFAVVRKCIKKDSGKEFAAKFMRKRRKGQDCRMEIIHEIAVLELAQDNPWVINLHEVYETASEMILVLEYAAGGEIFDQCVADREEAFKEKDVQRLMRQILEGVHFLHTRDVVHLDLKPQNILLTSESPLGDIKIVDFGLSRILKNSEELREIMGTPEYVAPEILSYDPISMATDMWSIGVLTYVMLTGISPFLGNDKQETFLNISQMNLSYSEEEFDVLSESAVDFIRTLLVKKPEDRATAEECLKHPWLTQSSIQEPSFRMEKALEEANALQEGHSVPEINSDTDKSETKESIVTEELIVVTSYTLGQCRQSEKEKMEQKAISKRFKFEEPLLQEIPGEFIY

TIE2 = TIE2 (Homo sapiens (Human), UniProt Q02763); test: KINOMEscan; assay type: binding; details: TIE2, 10000 nM; read-out: Percent Control
DCAMKL1 = DCAMKL1 (Homo sapiens (Human), UniProt O15075); test: KINOMEscan; assay type: binding; details: DCAMKL1, 10000 nM; read-out: Percent Control
EGFR(G719C) = EGFR(G719C) (Homo sapiens (Human), UniProt P00533, G719C); test: KINOMEscan; assay type: binding; details: 10000 nM, read-out: Percent Control
SRPK2 = SRPK2 (Homo sapiens (Human), UniProt P78362); test: KINOMEscan; assay type: binding; details: SRPK2, 10000 nM; read-out: Percent Control
Chain of SRPK2 (P78362 whole entry): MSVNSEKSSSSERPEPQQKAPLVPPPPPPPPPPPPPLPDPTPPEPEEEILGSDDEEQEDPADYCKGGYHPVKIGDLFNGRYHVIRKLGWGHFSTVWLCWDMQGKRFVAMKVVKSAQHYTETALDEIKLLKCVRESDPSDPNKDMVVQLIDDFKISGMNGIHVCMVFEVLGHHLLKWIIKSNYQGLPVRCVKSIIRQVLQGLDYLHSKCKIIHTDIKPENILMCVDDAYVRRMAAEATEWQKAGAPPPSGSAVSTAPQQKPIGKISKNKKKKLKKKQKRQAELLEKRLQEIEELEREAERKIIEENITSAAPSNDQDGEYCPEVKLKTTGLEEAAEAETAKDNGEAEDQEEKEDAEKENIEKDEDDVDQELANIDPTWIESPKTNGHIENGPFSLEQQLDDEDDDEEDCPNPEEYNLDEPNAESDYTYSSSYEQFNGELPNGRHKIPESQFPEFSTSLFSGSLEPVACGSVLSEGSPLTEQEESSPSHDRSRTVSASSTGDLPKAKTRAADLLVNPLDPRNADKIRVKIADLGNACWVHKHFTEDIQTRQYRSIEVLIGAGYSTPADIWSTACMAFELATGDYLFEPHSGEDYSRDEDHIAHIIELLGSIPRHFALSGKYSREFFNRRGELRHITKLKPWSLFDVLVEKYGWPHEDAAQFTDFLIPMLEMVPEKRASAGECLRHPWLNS

CSF1R = CSF1R (Homo sapiens (Human), UniProt P07333); test: KINOMEscan; assay type: binding; details: 10000 nM, read-out: Percent Control
CDKL1 = CDKL1 (Homo sapiens (Human), UniProt Q00532); test: KINOMEscan; assay type: binding; details: CDKL1, 10000 nM; read-out: Percent Control
PTK2 (FAK) = PTK2 (FAK) (Homo sapiens (Human), UniProt Q05397); test: Z′-LYTE kinase assay (SelectScreen Biochemical Kinase Profiling), enzymatic IC50
Chain of PTK2 (FAK) (Q05397 whole entry): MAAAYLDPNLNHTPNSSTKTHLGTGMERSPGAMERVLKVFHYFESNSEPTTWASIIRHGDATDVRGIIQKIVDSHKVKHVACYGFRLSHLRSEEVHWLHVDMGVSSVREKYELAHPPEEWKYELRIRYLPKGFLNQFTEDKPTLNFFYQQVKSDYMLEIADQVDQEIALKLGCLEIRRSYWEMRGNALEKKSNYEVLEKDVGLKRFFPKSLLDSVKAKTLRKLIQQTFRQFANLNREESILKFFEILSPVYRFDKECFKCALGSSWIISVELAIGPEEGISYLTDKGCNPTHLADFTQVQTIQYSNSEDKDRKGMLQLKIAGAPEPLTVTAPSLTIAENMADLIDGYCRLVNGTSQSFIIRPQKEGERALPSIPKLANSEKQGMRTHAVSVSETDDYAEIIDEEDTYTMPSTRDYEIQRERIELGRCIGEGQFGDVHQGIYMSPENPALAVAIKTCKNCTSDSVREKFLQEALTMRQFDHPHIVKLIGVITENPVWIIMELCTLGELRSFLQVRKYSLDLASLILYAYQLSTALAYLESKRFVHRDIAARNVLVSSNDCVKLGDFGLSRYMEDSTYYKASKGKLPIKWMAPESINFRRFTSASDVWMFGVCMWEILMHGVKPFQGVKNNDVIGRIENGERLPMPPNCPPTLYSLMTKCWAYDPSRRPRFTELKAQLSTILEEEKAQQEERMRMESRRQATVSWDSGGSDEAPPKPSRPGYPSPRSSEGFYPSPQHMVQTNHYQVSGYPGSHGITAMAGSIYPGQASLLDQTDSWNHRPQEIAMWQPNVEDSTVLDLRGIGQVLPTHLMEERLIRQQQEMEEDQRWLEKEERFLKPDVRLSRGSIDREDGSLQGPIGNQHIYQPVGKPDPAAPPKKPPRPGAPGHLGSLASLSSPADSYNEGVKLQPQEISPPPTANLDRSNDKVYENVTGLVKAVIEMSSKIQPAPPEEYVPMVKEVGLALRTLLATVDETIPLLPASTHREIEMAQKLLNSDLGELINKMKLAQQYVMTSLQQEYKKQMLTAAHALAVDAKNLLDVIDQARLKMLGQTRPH
Experimental: Enzymatic IC50 data was obtained through ThermoFisher Scientific SelectScreen™ Biochemical Kinase Profiling Service, using a Z′-LYTE™ kinase-specific assay, as described below.
The test compounds were screened in 1% dimethyl sulfoxide (DMSO) (final) in the well. For 10 point titrations, 3-fold serial dilutions were conducted from the starting concentration.
All peptide/kinase mixtures were diluted to a 2× working concentration in the appropriate kinase buffer (see section kinase specific assay conditions for a complete description).
All ATP solutions were diluted to a 4× working concentration in kinase buffer (50 mM 4-(2-hydroxyethyl)-1-piperazineethanesulfonic acid (HEPES) pH 7.5, 0.01% BRIJ-35, 10 mM MgCl2, 1 mM ethylene glycol-bis(β-aminoethyl ether)-N,N,N′,N′-tetraacetic acid (EGTA)). ATP Km apparent was previously determined using a Z′-LYTE assay.
The development reagent was diluted in development buffer (see section kinase-specific assay conditions—direct and cascade for a complete description).
Using a bar-coded Corning, low volume NBS, black 384-well plate (Corning Cat. #4514), 100 nL of 100× test compound in 100% DMSO was added. […] The plate was then shaken for 30 seconds and held at room temperature for a 60 minute kinase reaction incubation period. At which point 5 μL of development reagent solution was added and the plate was shaken for 30 seconds. The plate was held again at room temperature for a 60 minute development reaction incubation period and then read on a fluorescence plate reader and analyzed.
The 2×PTK2 (FAK)/Tyr 07 mixture was prepared in 50 mM HEPES pH 7.5, 0.01% BRIJ-35, 10 mM MgCl2, 1 mM EGTA. […] After the 1 hour kinase reaction incubation period, 5 μL of a 1:16 dilution of development reagent B was added.
SelectScreen Kinase Profiling Service uses XLfit from ID Business Solutions (IDBS). The dose response curve was curve fit to model number 205 (sigmoidal dose-response model).

ACVRL1 = ACVRL1 (Homo sapiens (Human), UniProt P37023); test: KINOMEscan; assay type: binding; details: ACVRL1, 10000 nM; read-out: Percent Control
PIK3CA(M1043I) = PIK3CA(M1043I) (Homo sapiens (Human), UniProt P42336, M1043I); test: KINOMEscan; assay type: binding; details: 10000 nM, read-out: Percent Control
CDK11 = CDK11 (Homo sapiens (Human), UniProt Q9BWU1); test: KINOMEscan; assay type: binding; details: CDK11, 10000 nM; read-out: Percent Control
CSF1R-autoinhibited = CSF1R-autoinhibited (Homo sapiens (Human), UniProt P07333); test: KINOMEscan; assay type: binding; details: 10000 nM, read-out: Percent Control
[2] = enzymatic, Z′-LYTE, read-out: FAK IC50

Row | Compound | remaining binding at 10 µM (PDPK1) [%] | remaining binding at 10 µM (EPHA3) [%] | remaining binding at 10 µM [1] [%] | remaining binding at 10 µM (IKK-beta) [%] | remaining binding at 10 µM (ERK2) [%] | remaining binding at 10 µM (ERK3) [%] | remaining binding at 10 µM (PLK1) [%] | remaining binding at 10 µM (SGK3) [%] | remaining binding at 10 µM (BRK) [%] | remaining binding at 10 µM (STK16) [%] | remaining binding at 10 µM (ABL1-phosphorylated) [%] | remaining binding at 10 µM (p38-beta) [%] | remaining binding at 10 µM (BRSK2) [%] | remaining binding at 10 µM (DRAK1) [%] | remaining binding at 10 µM (TIE2) [%] | remaining binding at 10 µM (DCAMKL1) [%] | remaining binding at 10 µM (EGFR(G719C)) [%] | remaining binding at 10 µM (SRPK2) [%] | remaining binding at 10 µM (CSF1R) [%] | remaining binding at 10 µM (CDKL1) [%] | also measured
1 | COc1cc(N2CCC(N3CCN(C)CC3)CC2)ccc1Nc1ncc2c(n1)N(C)c1sc(C)nc1C(=O)N2 [Compound 3, 6-((2-methoxy-4-(4-(4-methylpiperazin-1-yl)piperidin-1-yl)phenyl)amino)-2,4-dimethyl-4,9-dihydro-10H-pyrimido[5,4-b]thiazolo[5,4-e][1,4]diazepin-10-one] | 76 | 99 | 84 | 100 | 60 | 89 | 100 | 100 | 66 | 81 | 17 | 55 | 78 | 95 | 83 | 91 | 34 | 87 | 36 | 72 | IC50 (PTK2 (FAK); [2]): 0.062 µM and 0.0622 µM; remaining binding at 10 µM (ACVRL1): 96%; remaining binding at 10 µM (PIK3CA(M1043I); PIK3CA(M1043I)): 87%; remaining binding at 10 µM (CDK11): 71%; remaining binding at 10 µM (CSF1R-autoinhibited): 90%
2 | COc1cc(N2CCC(N3CCN(C)CC3)CC2)ccc1Nc1ncc2c(n1)N(C)c1sc(C)nc1C(=O)N2C [Compound 5, 6-((2-methoxy-4-(4-(4-methylpiperazin-1-yl)piperidin-1-yl)phenyl)amino)-2,4,9-trimethyl-4,9-dihydro-10H-pyrimido[5,4-b]thiazolo[5,4-e][1,4]diazepin-10-one] | 96 | 100 | 31 | 96 | 98 | 100 | 0.7 | 100 | 100 | 100 | 79 | 95 | 91 | 100 | 100 | 7.9 | 100 | 89 | 80 | 80 | IC50 (PTK2 (FAK); FAK, Invitrogen, read-out: Biochemical IC50): 0.0202 ± 0.0019 µM; IC50 (PTK2 (FAK); [2]): 0.0183 µM; remaining binding at 10 µM (ACVRL1): 99%; remaining binding at 10 µM (PIK3CA(M1043I); PIK3CA(M1043l)): 100%; remaining binding at 10 µM (CDK11): 90%; remaining binding at 10 µM (CSF1R-autoinhibited): 100%
